Measured values published in ChEMBL document CHEMBL2440076, “New triarylpyrazoles as broad-spectrum anticancer agents: design, synthesis, and biological evaluation” (Eur J Med Chem, 2013).

How the values were obtained:
[1] = tested on: SR; assay: Growth inhibition of human SR cells after 48 hrs by sulforhodamine B assay; type: functional; conditions: for CC50: read-out: LC50 (the source's name)
[2] = tested on: OVCAR-3; assay: Growth inhibition of human OVCAR3 cells assessed as cell growth at 10 uM after 48 hrs by sulforhodamine B assay; type: functional; conditions: OVCAR-3, 48 h, read-out: Activity
[3] = tested on: HT-29; assay: Growth inhibition of human HT-29 cells assessed as cell growth at 10 uM after 48 hrs by sulforhodamine B assay; type: functional; conditions: HT-29, 48 h, read-out: Activity
[4] = tested on: NCI-H322M; assay: Growth inhibition of human NCI-H322M cells after 48 hrs by sulforhodamine B assay; type: functional; conditions: for CC50: read-out: LC50 (the source's name)
[5] = tested on: UO-31; assay: Growth inhibition of human UO31 cells after 48 hrs by sulforhodamine B assay; type: functional; conditions: UO-31, 48 h; for CC50: read-out: LC50 (the source's name)
[6] = tested on: OVCAR-8; assay: Growth inhibition of human OVCAR8 cells after 48 hrs by sulforhodamine B assay; type: functional; conditions: OVCAR-8, 48 h; for CC50: read-out: LC50 (the source's name)
[7] = tested on: HCT-116; assay: Growth inhibition of human HCT116 cells after 48 hrs by sulforhodamine B assay; type: functional; conditions: HCT-116, 48 h; for CC50: read-out: LC50 (the source's name)
[8] = tested on: M14; assay: Growth inhibition of human M14 cells assessed as cell growth at 10 uM after 48 hrs by sulforhodamine B assay; type: functional; conditions: M14, 48 h, read-out: Activity
[9] = tested on: OVCAR-8; assay: Growth inhibition of human OVCAR8 cells assessed as cell growth at 10 uM after 48 hrs by sulforhodamine B assay; type: functional; conditions: OVCAR-8, 48 h, read-out: Activity
[10] = tested on: HOP-92; assay: Growth inhibition of human HOP92 cells assessed as cell growth at 10 uM after 48 hrs by sulforhodamine B assay; type: functional; conditions: HOP-92, 48 h, read-out: Activity
[11] = tested on: 786-0; assay: Growth inhibition of human 786-0 cells after 48 hrs by sulforhodamine B assay; type: functional; conditions: 786-0, 48 h; for CC50: read-out: LC50 (the source's name)
[12] = tested on: HCT-15; assay: Growth inhibition of human HCT15 cells after 48 hrs by sulforhodamine B assay; type: functional; conditions: HCT-15, 48 h
[13] = tested on: SF-539; assay: Growth inhibition of human SF539 cells after 48 hrs by sulforhodamine B assay; type: functional; conditions: SF-539, 48 h
[14] = tested on: UACC-257; assay: Growth inhibition of human UACC257 cells after 48 hrs by sulforhodamine B assay; type: functional; conditions: UACC-257, 48 h; for CC50: read-out: LC50 (the source's name)
[15] = tested on: A549; assay: Growth inhibition of human A549/ATCC cells after 48 hrs by sulforhodamine B assay; type: functional; conditions: A549, 48 h
[16] = tested on: COLO 205; assay: Growth inhibition of human COLO205 cells assessed as cell growth at 10 uM after 48 hrs by sulforhodamine B assay; type: functional; conditions: COLO 205, 48 h, read-out: Activity
[17] = tested on: SW-620; assay: Growth inhibition of human SW620 cells after 48 hrs by sulforhodamine B assay; type: functional; conditions: SW-620, 48 h; for CC50: read-out: LC50 (the source's name)
[18] = Growth inhibition of human HCC2998 cells after 48 hrs by sulforhodamine B assay; type: functional; conditions: HCC 2998, 48 h; for CC50: read-out: LC50 (the source's name)
[19] = tested on: KM12; assay: Growth inhibition of human KM12 cells after 48 hrs by sulforhodamine B assay; type: functional, cell-based; conditions: KM12, 48 h; for CC50: read-out: LC50 (the source's name)
[20] = tested on: UACC-62; assay: Growth inhibition of human UACC62 cells after 48 hrs by sulforhodamine B assay; type: functional; conditions: UACC-62, 48 h
[21] = tested on: K562; assay: Growth inhibition of human K562 cells assessed as cell growth at 10 uM after 48 hrs by sulforhodamine B assay; type: functional; conditions: K562, 48 h, read-out: Activity
[22] = tested on: ACHN; assay: Growth inhibition of human ACHN cells after 48 hrs by sulforhodamine B assay; type: functional; conditions: for CC50: read-out: LC50 (the source's name)
[23] = tested on: DU-145; assay: Growth inhibition of human DU145 cells after 48 hrs by sulforhodamine B assay; type: functional; conditions: DU-145, 48 h
[24] = tested on: SNB-19; assay: Growth inhibition of human SNB19 cells assessed as cell growth at 10 uM after 48 hrs by sulforhodamine B assay; type: functional; conditions: SNB-19, 48 h, read-out: Activity
[25] = tested on: DU-145; assay: Growth inhibition of human DU145 cells assessed as cell growth at 10 uM after 48 hrs by sulforhodamine B assay; type: functional; conditions: DU-145, 48 h, read-out: Activity
[26] = tested on: MCF7; assay: Growth inhibition of human MCF7 cells assessed as cell growth at 10 uM after 48 hrs by sulforhodamine B assay; type: functional; conditions: MCF7, 48 h, read-out: Activity
[27] = tested on: MDA-MB-468; assay: Growth inhibition of human MDA-MB-468 cells after 48 hrs by sulforhodamine B assay; type: functional, cell-based; conditions: MDA-MB-468, 48 h; for CC50: read-out: LC50 (the source's name)
[28] = Growth inhibition of human NCI-ADR-RES cells assessed as cell growth at 10 uM after 48 hrs by sulforhodamine B assay; type: functional; conditions: read-out: Activity
[29] = tested on: NCI-H322M; assay: Growth inhibition of human NCI-H322M cells assessed as cell growth at 10 uM after 48 hrs by sulforhodamine B assay; type: functional; conditions: read-out: Activity
[30] = tested on: U-251; assay: Growth inhibition of human U251 cells after 48 hrs by sulforhodamine B assay; type: functional; conditions: U-251, 48 h
[31] = tested on: MDA-MB-231; assay: Growth inhibition of human MDA-MB-231 cells assessed as cell growth at 10 uM after 48 hrs by sulforhodamine B assay; type: functional; conditions: MDA-MB-231, 48 h, read-out: Activity
[32] = tested on: OVCAR-5; assay: Growth inhibition of human OVCAR5 cells assessed as cell growth at 10 uM after 48 hrs by sulforhodamine B assay; type: functional; conditions: OVCAR-5, 48 h, read-out: Activity
[33] = tested on: SK-MEL-28; assay: Growth inhibition of human SK-MEL-28 cells assessed as cell growth at 10 uM after 48 hrs by sulforhodamine B assay; type: functional; conditions: SK-MEL-28, 48 h, read-out: Activity
[34] = tested on: SF-539; assay: Growth inhibition of human SF539 cells assessed as cell growth at 10 uM after 48 hrs by sulforhodamine B assay; type: functional; conditions: SF-539, 48 h, read-out: Activity

COc1cc(-c2nn(-c3cccc(NC(=O)Nc4cc(C(F)(F)F)cc(C(F)(F)F)c4)c3)cc2-c2ccncc2)ccc1Cl
GI50 [1]: 1080 nM | TGI [1]: 3970 nM | CC50 [1]: > 50000 nM | growth at 10 µM [2]: -57.9% | growth at 10 µM [3]: -41.2% | GI50 [4]: 1020 nM | TGI [4]: 3000 nM | CC50 [4]: 29900 nM | GI50 [5]: 600 nM | TGI [5]: 1280 nM | CC50 [5]: 2730 nM | GI50 [6]: 524 nM | TGI [6]: 3980 nM | CC50 [6]: > 50000 nM | GI50 [7]: 643 nM | TGI [7]: 1760 nM | CC50 [7]: 4830 nM | growth at 10 µM [8]: -42.1% | growth at 10 µM [9]: -12.7% | growth at 10 µM [10]: -50.2% | GI50 [11]: 950 nM | TGI [11]: 2020 nM | CC50 [11]: 4310 nM | GI50 [12]: 617 nM | LC50 [12]: 4330 nM | TGI [12]: 1640 nM | GI50 [13]: 829 nM | LC50 (concentration killing 50% of cells) [13]: 3540 nM | TGI [13]: 1710 nM | GI50 [14]: 916 nM | TGI [14]: 2350 nM | CC50 [14]: 26200 nM | GI50 [15]: 527 nM | LC50 (concentration killing 50% of starting cells) [15]: 18000 nM | TGI [15]: 2130 nM | growth at 10 µM [16]: -98.7% | GI50 [17]: 715 nM | TGI [17]: 1860 nM | CC50 [17]: 4870 nM | GI50 [18]: 931 nM | TGI [18]: 1870 nM | CC50 [18]: 3760 nM | GI50 [19]: 531 nM | IC50 [19]: 530 nM | TGI [19]: 1340 nM | CC50 [19]: 3390 nM | GI50 [20]: 661 nM | LC50 (50% lethal concentration) [20]: 3780 nM | TGI [20]: 1580 nM | growth at 10 µM [21]: -10.7% | GI50 [22]: 491 nM | TGI [22]: 5720 nM | CC50 [22]: > 50000 nM | GI50 [23]: 1310 nM | LC50 [23]: 21100 nM | TGI [23]: 5040 nM | growth at 10 µM [24]: 6.55% | growth at 10 µM [25]: 3.89% | growth at 10 µM [26]: 1.74% | GI50 [27]: 307 nM | IC50 [27]: 310 nM | TGI [27]: 1540 nM | CC50 [27]: 24300 nM | growth at 10 µM [28]: 1.11% | growth at 10 µM [29]: 26.1% | GI50 [30]: 590 nM | LC50 (concentration killing 50% of cells) [30]: 3180 nM | TGI [30]: 1370 nM | growth at 10 µM [31]: -92% | growth at 10 µM [32]: 16.3% | growth at 10 µM [33]: -28.9% | growth at 10 µM [34]: -53.5%

O=C(Nc1cccc(-n2cc(-c3ccncc3)c(-c3ccc(Cl)c(O)c3)n2)c1)Nc1ccc(Cl)c(Cl)c1
GI50 [1]: 1140 nM | TGI [1]: 15000 nM | CC50 [1]: > 32500 nM | growth at 10 µM [2]: -4.74% | growth at 10 µM [3]: 45.9% | GI50 [4]: 2890 nM | TGI [4]: > 32500 nM | CC50 [4]: > 32500 nM | GI50 [5]: 1250 nM | TGI [5]: > 32500 nM | CC50 [5]: > 32500 nM | GI50 [6]: 1210 nM | TGI [6]: > 32500 nM | CC50 [6]: > 32500 nM | GI50 [7]: 1190 nM | TGI [7]: 5730 nM | CC50 [7]: > 32500 nM | growth at 10 µM [8]: 17.2% | growth at 10 µM [9]: 11.7% | growth at 10 µM [10]: -20.2% | GI50 [11]: 7220 nM | TGI [11]: > 32500 nM | CC50 [11]: > 32500 nM | GI50 [12]: 1230 nM | LC50 [12]: > 32500 nM | TGI [12]: 29600 nM | GI50 [13]: 1340 nM | LC50 (concentration killing 50% of cells) [13]: > 32500 nM | TGI [13]: 8970 nM | GI50 [14]: 930 nM | TGI [14]: 3160 nM | CC50 [14]: > 32500 nM | GI50 [15]: 1010 nM | LC50 (concentration killing 50% of starting cells) [15]: > 32500 nM | TGI [15]: > 32500 nM | growth at 10 µM [16]: 30.2% | GI50 [17]: 1460 nM | TGI [17]: > 32500 nM | CC50 [17]: > 32500 nM | GI50 [18]: 2890 nM | TGI [18]: 13900 nM | CC50 [18]: > 32500 nM | GI50 [19]: 1010 nM | TGI [19]: 4470 nM | CC50 [19]: 26300 nM | GI50 [20]: 1110 nM | LC50 (50% lethal concentration) [20]: 29200 nM | TGI [20]: 5210 nM | growth at 10 µM [21]: 11.4% | GI50 [22]: 1040 nM | TGI [22]: > 32500 nM | CC50 [22]: > 32500 nM | GI50 [23]: 1500 nM | LC50 [23]: > 32500 nM | TGI [23]: > 32500 nM | growth at 10 µM [24]: 30.3% | growth at 10 µM [25]: 25.9% | growth at 10 µM [26]: 5.74% | GI50 [27]: 729 nM | IC50 [27]: 730 nM | TGI [27]: 4250 nM | CC50 [27]: > 32500 nM | growth at 10 µM [28]: 20.9% | growth at 10 µM [29]: 40.6% | GI50 [30]: 1510 nM | LC50 (concentration killing 50% of cells) [30]: > 32500 nM | TGI [30]: 9680 nM | growth at 10 µM [31]: -0.72% | growth at 10 µM [32]: 56.4% | growth at 10 µM [33]: 24.6% | growth at 10 µM [34]: 37%
